Assay results reported in PubChem BioAssay (NCI).
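48-hour exposure; five concentrations; linearly interpolated endpoints. TGI denotes the concentration required for complete inhibition of growth.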

Legend:
Assay in all cases: inhibition of tumour cell growth, NCI panel, 48 h
786-0 renal = test system: 786-0 renal
A498 renal = test system: A498 renal
A549 NSCLC = test system: A549 NSCLC
ACHN renal = test system: ACHN renal
BT-549 breast = test system: BT-549 breast
CAKI-1 renal = test system: CAKI-1 renal
COLO 205 colon = test system: COLO 205 colon
DU-145 prostate = test system: DU-145 prostate
EKVX NSCLC = test system: EKVX NSCLC
HCT-116 colon = test system: HCT-116 colon
HCT-15 colon = test system: HCT-15 colon
HL-60(TB) leukemia = test system: HL-60(TB) leukemia
HOP-62 NSCLC = test system: HOP-62 NSCLC
HOP-92 NSCLC = test system: HOP-92 NSCLC
HS 578T breast = test system: HS 578T breast
HT29 colon = test system: HT29 colon
IGROV1 ovarian = test system: IGROV1 ovarian
KM12 colon = test system: KM12 colon
LOX IMVI melanoma = test system: LOX IMVI melanoma
M14 melanoma = test system: M14 melanoma
MALME-3M melanoma = test system: MALME-3M melanoma
MCF7 breast = test system: MCF7 breast
MDA-MB-231 breast = test system: MDA-MB-231 breast
MDA-MB-435 = test system: MDA-MB-435
MDA-N = test system: MDA-N
MOLT-4 leukemia = test system: MOLT-4 leukemia
NCI-H226 lung = test system: NCI-H226 lung
NCI-H460 lung = test system: NCI-H460 lung
NCI-H522 lung = test system: NCI-H522 lung
NCI/ADR-RES ovarian = test system: NCI/ADR-RES ovarian
OVCAR-3 ovarian = test system: OVCAR-3 ovarian
OVCAR-4 ovarian = test system: OVCAR-4 ovarian
OVCAR-5 ovarian = test system: OVCAR-5 ovarian
OVCAR-8 ovarian = test system: OVCAR-8 ovarian
PC-3 prostate = test system: PC-3 prostate
RPMI-8226 leukemia = test system: RPMI-8226 leukemia
RXF 393 renal = test system: RXF 393 renal
SF-268 CNS = test system: SF-268 CNS
SF-295 CNS = test system: SF-295 CNS
SF-539 CNS = test system: SF-539 CNS
SK-MEL-2 melanoma = test system: SK-MEL-2 melanoma
SK-MEL-28 melanoma = test system: SK-MEL-28 melanoma
SK-MEL-5 melanoma = test system: SK-MEL-5 melanoma
SK-OV-3 ovarian = test system: SK-OV-3 ovarian
SN12C renal = test system: SN12C renal
SNB-19 CNS = test system: SNB-19 CNS
SNB-75 CNS = test system: SNB-75 CNS
SW-620 colon = test system: SW-620 colon
T-47D breast = test system: T-47D breast
TK-10 renal = test system: TK-10 renal
U251 CNS = test system: U251 CNS
UACC-257 melanoma = test system: UACC-257 melanoma
UACC-62 melanoma = test system: UACC-62 melanoma
UO-31 renal = test system: UO-31 renal
HCC-2998 colon = test system: HCC-2998 colon
K-562 leukemia = test system: K-562 leukemia
NCI-H23 lung = test system: NCI-H23 lung

Measured: TGI

O=C1NC(c2c(Cl)cccc2Cl)Nc2ccccc21 (configuration not stated)
74.1 µM: HS 578T breast
72.7 µM: SK-MEL-5 melanoma
37.4 µM: SNB-75 CNS
33 µM: MDA-MB-435
88.7 µM: MALME-3M melanoma
76.7 µM: CAKI-1 renal
70.5 µM: MDA-N
43.7 µM: KM12 colon
46.9 µM: HL-60(TB) leukemia
not listed: HCC-2998 colon | K-562 leukemia | NCI-H23 lung
> 100 µM: all other assays above

CCOC(=O)c1nnsc1NN=C(C)C
not listed: ACHN renal | HOP-92 NSCLC | MCF7 breast | SNB-19 CNS
> 100 µM: all other assays above
